Assay results reported in patent publication US8808721B2, “Bed bug attractants and methods for trapping bed bugs” (SpringStar Inc., priority 2011, dated 2014).

Tests used:
[1] = system: bed bugs; assay: ST traps, kairomone components (Example 9); format: in vivo, Cimex lectularius; conditions: combined with CO2 and heat, Location 4
Procedure: The kairomone composition of A1 was split into it components by chemical class, to determine if all components were necessary. Three new kairomone blends were tested (Table 3, Example 4). Blend A2 contained only skatole and androstenone (male boar compounds), and the adjuvants. Blend A3 contained all the ingredients from A1, but in slightly different ratios. Blend A4 contained only the fatty acid components and adjuvants. Four treatments were tested as follows: T0=CF1S+HW;T1=CF1+HW+A3;T2=CF1+HW+A2;T3=CF1+HW+A4
For treatment T0, the CO2 blend was made without skatole (CF1S, Table 1, Example 1). All treatments were tested using ST traps assembled as in Example 4.
A new location was used for testing kairomone components. Location 4 was an inhabited, 2-bedroom duplex in the suburbs of Seattle. Vacuum sampling estimated bed bug populations in each room at between 2,000 and 10,000 insects, which is considered heavily infested. Two people slept in the bedrooms on cots raised 50 cm off the carpet, which were then isolated from bed bugs in harborages by placing under each bed leg a plastic 16 oz drinking cup filled with propylene glycol or white pepper powder. […]

[2] = system: bed bugs; assay: ST traps, adding skatole to carbon dioxide bait (Example 10); set-up: species or system Cimex lectularius; conditions: in vivo
Description: Four ST traps from Example 3, baited with CF1, were paired with four ST traps baited with CF1S. Traps were placed in each of four corners of the location in Example 3. Traps were retrieved after one night. […] Additionally, all CF1 traps caught at least 2 bed bugs whereas half of the CF1S traps caught no bed bugs.

| SMILES | attractiveness of kairomone blend or component to bed bugs [1] | effect of adding to the fermentative mixture on trap attractiveness [2] |
| --- | --- | --- |
| C[C@]12CCC(=O)C[C@@H]1CC[C@@H]1[C@@H]2CC[C@]2(C)C=CC[C@@H]12 [androstenone] | acted synergistically with the fatty acid compounds to attract bed bugs |  |
| Cc1c[nH]c2ccccc12 [skatole, 3-methyl indole] |  | increased trap attractiveness to bed bugs |
